In ChEMBL document CHEMBL5252567, “Tetrazole-based inhibitors of the bacterial enzyme N-succinyl-l,l-2,6-diaminopimelic acid desuccinylase as potential antibiotics” (Bioorg Med Chem Lett, 2023):

Columns and labels:
[1] = biological target: T1, Succinyl-diaminopimelate desuccinylase (Haemophilus influenzae (strain ATCC 51907 / DSM 11121 / KW20 / Rd)) (UniProt P44514); test: Inhibition of Haemophilus influenzae DapE at 100 uM relative to control
T1 sequence (whole entry): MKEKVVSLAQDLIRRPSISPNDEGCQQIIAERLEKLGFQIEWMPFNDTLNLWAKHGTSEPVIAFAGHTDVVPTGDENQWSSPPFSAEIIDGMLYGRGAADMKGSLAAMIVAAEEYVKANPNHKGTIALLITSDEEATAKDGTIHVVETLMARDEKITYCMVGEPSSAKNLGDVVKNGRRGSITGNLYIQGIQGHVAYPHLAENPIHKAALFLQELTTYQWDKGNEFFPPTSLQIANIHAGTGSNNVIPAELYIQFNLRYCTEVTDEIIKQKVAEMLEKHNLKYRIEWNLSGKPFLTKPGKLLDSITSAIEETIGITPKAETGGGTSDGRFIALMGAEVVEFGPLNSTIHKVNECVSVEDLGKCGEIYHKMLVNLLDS

[2] = biological target: T2, Succinyl-diaminopimelate desuccinylase (Haemophilus influenzae (strain ATCC 51907 / DSM 11121 / KW20 / Rd), UniProt P44514); test: Inhibition of Haemophilus influenzae DapE
T2 sequence (P44514 whole entry): T1 sequence (whole entry)

[3] = biological target: T1, Succinyl-diaminopimelate desuccinylase (Haemophilus influenzae (strain ATCC 51907 / DSM 11121 / KW20 / Rd)); test: Inhibition of Haemophilus influenzae DapE at 75 uM relative to control

Compound O=C(CSc1nnnn1-c1ccccc1)Nc1nccs1 has an inhibition [1] of 71.5% and an IC50 [2] of 50.2 µM.
CC(Sc1nnnn1-c1ccccc1)C(=O)Nc1cnccn1 (centres undefined) showed an inhibition [1] of 9.7%.
Compound CC(Sc1nnnn1-c1ccccc1)C(=O)Nc1ccccn1 (centres undefined) has an inhibition [1] of 23.2%.
Compound O=C(CSc1nnnn1-c1ccccc1)NCc1ccccc1 has an inhibition [1] of 61.5% and an IC50 [2] of 103 µM.
For CC(Sc1nnnn1-c1ccccc1)C(=O)Nc1ccc(Cl)cn1 (centres undefined), the inhibition [1] was 71% and the IC50 [2] was 57.3 µM.
CC(Sc1nnnn1-c1ccccc1)C(=O)Nc1ccccc1 (centres undefined) was tested, and the inhibition [1] was 55.4% and the IC50 [2] was 134 µM.
O=C(CSc1nnnn1-c1ccccc1)Nc1cnccn1 gave an inhibition [1] of 10.2%.
CC(Sc1nnnn1-c1ccccc1)C(=O)NCc1ccccc1 (centres undefined) showed an inhibition [1] of 36.3%.
O=C(CSc1nnnn1-c1ccccc1)Nc1ccc(Cl)cn1 was tested, and the inhibition [3] was 39.5%.
For O=C(CSc1nnnn1-c1ccccc1)Nc1ccon1, the inhibition [1] was 49.2%.
O=C(CSc1nnnn1-c1ccccc1)Nc1ccccc1 was tested, and the inhibition [1] was 83.8% and the IC50 [2] was 54.3 µM.
Compound O=C(CSc1nnnn1-c1ccccc1)Nc1ccccn1 has an inhibition [1] of 26.5%.
CC(Sc1nnnn1-c1ccccc1)C(=O)Nc1nccs1 (centres undefined) gave an inhibition [1] of 35.6%.
CC(Sc1nnnn1-c1ccccc1)C(=O)Nc1ccon1 (centres undefined) showed an inhibition [1] of 17.2%.
